Here are results for 10 molecules from PMC3454369, “Functional Redundancy of Class I Phosphoinositide 3-Kinase (PI3K) Isoforms in Signaling Growth Factor-Mediated Human Neutrophil Survival” (PLoS ONE, 2012).

The term IC50 denotes the concentration at which inhibition is half-maximal.

Series [1] concerns Human neutrophils. As to the kind of experiment: Morphologic analysis of human neutrophil apoptosis (light microscopy of cytospins). Type of series: cell-based. The conditions noted are these: increasing concentrations, rhGM-CSF 10 ng/ml, 20 h, morphology.
Series [2] relates to Human neutrophils. As to the kind of experiment: rhGM-CSF-modulated human neutrophil apoptosis, annexin V/PI flow cytometry. The conditions noted are these: rhGM-CSF 10 ng/ml; for Effect on rhGM-CSF-mediated human neutrophil survival: 20 h. It is filed as cell-based. How it is done: To examine the effects of small molecule PI3K inhibitors on rhGM-CSF (10 ng/ml) -modulated apoptosis, neutrophils (5×10^6/ml) were re-suspended in Iscove’s modified Dulbecco medium (IMDM) supplemented with 10% autologous serum, 100 U/mL penicillin and 100 µg/mL streptomycin in non-tissue culture treated flat bottom Falcon Flexiwell plates in a humidified 5% CO2 atmosphere at 37°C.

Series [3] is described as follows: Cell accessibility of the inhibitor (footnote of Table 3). The following applies: footnote mark at the inhibitor's name. Also noted: key: *: Poor cell accessibility.
Series [4] relates to Human neutrophils. As to the kind of experiment: fMLP-stimulated neutrophil oxidative burst (luminol/HRP chemiluminescence). It is filed as cell-based. The conditions noted are these: fMLP 100 nM. How it is done: All PI3K inhibitors were dissolved in dimethyl sulfoxide (DMSO) and stored at −20°C. […] The concentration response curves for NVS-PI3-3 and NVS-PI3-4 on the neutrophil respiratory burst generated as described in [10] are shown in Figure 2.  Figure 2 Effect of NVS-PI3-4 and NVS-PI3-3 on Neutrophil Oxidative Burst. Human neutrophils were suspended at 4×10^6/ml in HBSS at 37°C and either primed with TNFα 10 ng/ml or treated with vehicle control, prior to the addition of NVS-PI3-4 (A) or NVS-PI3-3 (B) at the indicated concentrations. […] Triangular symbols represent TNFα-primed cells; unprimed cells depicted by squares.

Another series addresses p110α (Homo sapiens, UniProt P42336). As to the kind of experiment: biochemical.
Another series concerns the target p110β (Homo sapiens, UniProt P42338). As to the kind of experiment: biochemical.
Another series addresses p110δ (Homo sapiens, UniProt O00329). As to the kind of experiment: biochemical.
In series [5] the test system is Peripheral blood neutrophils from exacerbating COPD patients. As to the kind of experiment: Ex vivo apoptosis of peripheral blood neutrophils from patients with exacerbation of COPD, annexin V/PI flow cytometry. Type of series: cell-based, human. The conditions noted are these: 20 hours culture. On the technique in general: A flow cytometer gives signals particle by particle.

The test system of series [6] is PKB (Akt) phosphorylation. As to the kind of experiment: Western blot for rhGM-CSF-induced PKB (Akt Ser473) phosphorylation in human neutrophils. The following applies: 20 min pre-incubation, rhGM-CSF 10 ng/ml 10 min. Type of series: cell-based. How it is done:
Neutrophils were suspended at 5×10^6/ml and 0.5 ml aliquots were pre-incubated for 20 minutes with PI3K inhibitors at 37°C prior to treatment with GM-CSF 10 ng/ml for 10 min. The cells were washed with ice-cold phosphate-buffered saline and pelleted and resuspended in 50 µl of cold lysis buffer (20 mM Tris-HCl (pH 7.5), 150 mM NaCl, 1 mM EDTA, 1 mM EGTA, 1% Triton X-100, 2.5 mM sodium pyrophosphate, 1 mM β-glycerophosphate, 1 mM PMSF, 1 mM sodium fluoride, 2 mM sodium orthovanadate, 10 µg/ml leupeptin, 10 µg/ml aprotinin) and incubated on ice for 10 minutes. The Triton-insoluble fraction was pelleted by centrifugation at 10 000 g for 15 min at 4°C. The protein concentration of the supernatant was determined using a colorimetric assay (bicinchoninic acid; BCA, BIO Rad Laboratories). SDS sample buffer was added to each neutrophil lysate and heated to 99°C for 5 min. 30 µg of protein/well was loaded on to each 10% SDS-polyacrylamide gel and subjected to electrophoresis at 150 V and transferred to a PVDF Immobilon membrane using a semi-dry transfer system at 130 mA for 90 minutes. The membrane was blocked for 1 hour with 5% non-fat dry milk in Tris-HCl buffered saline containing 0.1% (w/v) Tween 20 then immunoblotted overnight at 4°C in TBS-Tween-20 with primary monoclonal antibody to total Akt rabbit mAb or Phospho-Akt (Ser^473) rabbit mAb (Cell Signaling Technology 40585 and 9272 respectively) at a dilution of 1∶1000 in TBS-Tween 20 with 5% Bovine Serum Albumin. The membrane was washed three times in TBS-Tween 20 and incubated with ECL HRP-conjugated donkey anti-rabbit IgG (Fab2 fragment; GE Healthcare) at a dilution of 1∶10 000 in TBS-Tween 20 for 1 hour at room temperature. Membranes were developed using ECL-Plus kit (GE Healthcare).
Figure 5 Combined inhibition of all Class IA PI3Ks abrogates rhGM-CSF mediated PKB phosphorylation. […] Western blots from the experiments describe in B. above were scanned and analyzed using the Aida Image Analyzer 3.27 software package. […]

Series [7] deals with Murine peripheral blood neutrophils.
Setting [8] is: inhibitor 3 µM, used individually.
[9] abbreviates: inhibitor 1 µM, used individually.

Read-outs that look alike come from different tables or passages of the source.

Sequence of p110β (P42338 whole entry, species assumed): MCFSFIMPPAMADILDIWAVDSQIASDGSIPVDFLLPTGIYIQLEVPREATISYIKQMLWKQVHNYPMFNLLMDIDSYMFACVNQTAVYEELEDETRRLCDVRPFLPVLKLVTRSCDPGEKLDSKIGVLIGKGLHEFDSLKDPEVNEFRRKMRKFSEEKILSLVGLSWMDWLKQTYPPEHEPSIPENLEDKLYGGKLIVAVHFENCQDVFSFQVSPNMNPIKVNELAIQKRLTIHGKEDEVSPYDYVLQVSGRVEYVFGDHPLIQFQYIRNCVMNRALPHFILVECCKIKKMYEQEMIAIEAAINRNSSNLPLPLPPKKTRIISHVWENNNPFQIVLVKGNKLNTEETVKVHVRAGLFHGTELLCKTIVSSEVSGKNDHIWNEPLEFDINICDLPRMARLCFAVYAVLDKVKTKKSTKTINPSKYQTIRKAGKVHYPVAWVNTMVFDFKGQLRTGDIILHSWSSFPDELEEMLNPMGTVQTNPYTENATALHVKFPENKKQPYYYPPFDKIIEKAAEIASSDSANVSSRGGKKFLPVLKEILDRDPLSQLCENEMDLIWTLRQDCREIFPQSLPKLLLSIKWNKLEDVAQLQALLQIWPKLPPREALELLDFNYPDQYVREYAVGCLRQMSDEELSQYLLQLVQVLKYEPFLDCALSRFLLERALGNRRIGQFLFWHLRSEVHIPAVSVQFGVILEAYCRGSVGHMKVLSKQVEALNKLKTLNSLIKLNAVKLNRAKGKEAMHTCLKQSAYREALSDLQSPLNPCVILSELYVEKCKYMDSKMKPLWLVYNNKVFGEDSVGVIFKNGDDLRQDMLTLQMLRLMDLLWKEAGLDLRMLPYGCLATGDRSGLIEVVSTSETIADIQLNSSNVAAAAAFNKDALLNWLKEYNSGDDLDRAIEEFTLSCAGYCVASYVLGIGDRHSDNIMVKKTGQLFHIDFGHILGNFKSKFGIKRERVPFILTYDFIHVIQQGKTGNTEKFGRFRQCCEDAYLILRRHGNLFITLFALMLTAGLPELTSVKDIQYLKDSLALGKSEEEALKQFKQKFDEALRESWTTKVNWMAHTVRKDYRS
Sequence of p110β (P27986 whole entry partner, species assumed): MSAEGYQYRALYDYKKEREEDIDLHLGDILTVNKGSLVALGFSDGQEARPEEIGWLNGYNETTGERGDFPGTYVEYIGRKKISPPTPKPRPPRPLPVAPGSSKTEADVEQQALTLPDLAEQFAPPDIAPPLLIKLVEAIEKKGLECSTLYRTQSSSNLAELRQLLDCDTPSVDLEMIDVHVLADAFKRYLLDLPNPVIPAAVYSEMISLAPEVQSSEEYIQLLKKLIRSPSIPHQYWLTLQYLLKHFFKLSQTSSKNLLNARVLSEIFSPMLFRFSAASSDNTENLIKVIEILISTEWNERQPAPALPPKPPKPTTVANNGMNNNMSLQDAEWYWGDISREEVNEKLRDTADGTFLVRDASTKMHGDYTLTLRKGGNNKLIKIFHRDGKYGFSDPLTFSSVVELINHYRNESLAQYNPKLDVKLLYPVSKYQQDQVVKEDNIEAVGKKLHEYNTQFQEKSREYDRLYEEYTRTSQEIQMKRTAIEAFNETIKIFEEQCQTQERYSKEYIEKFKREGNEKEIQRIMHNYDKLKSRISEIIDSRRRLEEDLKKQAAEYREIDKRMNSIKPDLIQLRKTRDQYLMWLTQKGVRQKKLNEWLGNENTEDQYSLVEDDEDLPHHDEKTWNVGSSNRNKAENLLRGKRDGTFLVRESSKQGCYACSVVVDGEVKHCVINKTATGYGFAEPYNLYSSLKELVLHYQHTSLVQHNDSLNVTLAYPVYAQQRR
Sequence of p110α (P42336 whole entry, species assumed): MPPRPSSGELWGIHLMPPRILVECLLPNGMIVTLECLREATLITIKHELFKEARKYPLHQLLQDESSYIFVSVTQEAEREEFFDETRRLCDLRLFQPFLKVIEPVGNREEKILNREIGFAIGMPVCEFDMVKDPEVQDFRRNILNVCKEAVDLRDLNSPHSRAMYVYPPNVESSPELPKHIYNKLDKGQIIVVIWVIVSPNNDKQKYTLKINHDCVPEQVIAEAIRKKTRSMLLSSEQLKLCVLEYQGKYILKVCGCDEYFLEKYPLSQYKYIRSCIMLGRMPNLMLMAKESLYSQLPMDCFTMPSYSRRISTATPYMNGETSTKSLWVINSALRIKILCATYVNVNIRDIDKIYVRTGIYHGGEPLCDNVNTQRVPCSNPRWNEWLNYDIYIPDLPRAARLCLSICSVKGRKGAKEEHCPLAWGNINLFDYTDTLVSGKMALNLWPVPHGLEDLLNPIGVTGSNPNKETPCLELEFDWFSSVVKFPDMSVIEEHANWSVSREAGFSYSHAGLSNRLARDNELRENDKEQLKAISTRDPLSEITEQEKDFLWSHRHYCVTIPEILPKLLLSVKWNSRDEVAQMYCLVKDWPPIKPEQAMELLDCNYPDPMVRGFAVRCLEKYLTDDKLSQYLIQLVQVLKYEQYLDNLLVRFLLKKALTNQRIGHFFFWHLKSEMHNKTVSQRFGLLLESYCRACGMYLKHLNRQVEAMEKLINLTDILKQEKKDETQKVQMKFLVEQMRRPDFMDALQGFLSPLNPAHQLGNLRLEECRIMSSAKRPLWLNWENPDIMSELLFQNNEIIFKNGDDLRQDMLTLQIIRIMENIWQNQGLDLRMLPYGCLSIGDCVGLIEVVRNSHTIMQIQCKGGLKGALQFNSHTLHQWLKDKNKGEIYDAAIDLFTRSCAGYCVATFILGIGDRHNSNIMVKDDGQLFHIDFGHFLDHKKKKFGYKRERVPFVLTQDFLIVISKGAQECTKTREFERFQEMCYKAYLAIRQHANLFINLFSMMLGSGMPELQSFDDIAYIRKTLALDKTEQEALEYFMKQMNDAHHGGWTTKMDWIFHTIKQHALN
Sequence of p110α (P27986 whole entry partner, species assumed): as the sequence (P27986 whole entry partner, species assumed) above
Sequence of p110δ (O00329 whole entry, species assumed): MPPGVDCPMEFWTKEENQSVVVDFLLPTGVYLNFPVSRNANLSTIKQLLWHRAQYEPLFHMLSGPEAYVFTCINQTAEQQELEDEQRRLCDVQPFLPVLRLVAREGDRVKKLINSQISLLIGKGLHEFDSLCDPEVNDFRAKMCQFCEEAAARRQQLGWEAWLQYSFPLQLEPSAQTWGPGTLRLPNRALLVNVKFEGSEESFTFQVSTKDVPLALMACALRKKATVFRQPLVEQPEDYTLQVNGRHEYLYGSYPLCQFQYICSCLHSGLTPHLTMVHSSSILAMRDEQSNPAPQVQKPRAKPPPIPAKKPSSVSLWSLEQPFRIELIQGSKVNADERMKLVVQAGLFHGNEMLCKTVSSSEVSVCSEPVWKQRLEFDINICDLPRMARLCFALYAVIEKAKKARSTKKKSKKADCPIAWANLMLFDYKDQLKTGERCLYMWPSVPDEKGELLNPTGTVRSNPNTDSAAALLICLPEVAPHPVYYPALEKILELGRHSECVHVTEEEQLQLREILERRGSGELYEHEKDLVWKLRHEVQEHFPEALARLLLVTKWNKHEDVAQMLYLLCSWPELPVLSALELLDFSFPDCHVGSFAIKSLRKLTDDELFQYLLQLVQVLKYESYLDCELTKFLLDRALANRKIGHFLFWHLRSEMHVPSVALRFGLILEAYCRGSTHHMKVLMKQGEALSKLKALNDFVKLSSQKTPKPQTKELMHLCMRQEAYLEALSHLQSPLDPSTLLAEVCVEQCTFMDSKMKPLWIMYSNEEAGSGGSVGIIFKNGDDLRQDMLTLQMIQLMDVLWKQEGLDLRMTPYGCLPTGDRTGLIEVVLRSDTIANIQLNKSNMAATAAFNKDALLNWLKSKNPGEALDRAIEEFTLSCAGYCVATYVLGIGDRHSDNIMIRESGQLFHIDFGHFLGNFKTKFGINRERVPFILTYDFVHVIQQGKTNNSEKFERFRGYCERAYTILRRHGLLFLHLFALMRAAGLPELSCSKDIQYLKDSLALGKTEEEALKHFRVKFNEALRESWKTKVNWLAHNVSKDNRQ
Sequence of p110δ (P27986 whole entry partner, species assumed): as the sequence (P27986 whole entry partner, species assumed) above

For the molecule `O=c1[nH]c2ccccc2n1C1CCN(Cc2ccc(-c3nc4cc5nc[nH]c5cc4nc3-c3ccccc3)cc2)CC1` [AKT-i1/2], the “Effect on GM-CSF-mediated neutrophil survival” value in the series with Human neutrophils [1] was “suppresses GM-CSF-mediated neutrophil survival”.

In the case of `O=C1NC(=O)/C(=C\c2ccc3nccnc3c2)S1` [AS605240], in the series with Human neutrophils [2] (setting [8]), the “Effect on rhGM-CSF-mediated human neutrophil survival” value is “failed to abrogate GM-CSF mediated survival”. The Cell accessibility result in series [3] is on record as “AS605240 (γ) ^*”.

On to `Cc1cc(C(C)Nc2ccccc2C(=O)O)c2nc(N3CCOCC3)cc(=O)n2c1` (stereo not shown) [HBC-417], for which the “Effect on rhGM-CSF-mediated human neutrophil survival” value in the series on Human neutrophils [2] (setting [9]) was “failed to affect GM-CSF-mediated survival”.

For `Cc1ccccc1-n1c(Cn2cnc3c(N)ncnc32)nc2cccc(C)c2c1=O` [IC87114], in the series with Human neutrophils [2] (setting [8]), the “Effect on rhGM-CSF-mediated human neutrophil survival” value is listed as “failed to abrogate GM-CSF mediated survival”.

In the case of `NC(=O)[C@@H]1CCCN1C(=O)Nc1nc2ccc(-c3cnc(N)c(C(F)(F)F)c3)cc2s1` [NVS-PI3-2], the “Effect on rhGM-CSF-mediated human neutrophil survival” value in the series on Human neutrophils [2] (setting [9]) is “failed to affect GM-CSF-mediated survival”.

Turning to `CC(=O)c1ccc(-c2sc(NC(=O)NCCC(=O)NC(C)(C)C)nc2C)cc1` [NVS-PI3-4], the IC50 in the series with Human neutrophils [4] (TNFα 10 ng/ml-primed human neutrophils, read-out: Primed IC50, neutrophil oxidative burst) came out at 4 µM; in the series on Human neutrophils [4] (unprimed human neutrophils, read-out: Unprimed IC50, neutrophil oxidative burst), 0.71 µM; against p110α, 1.8 µM; against p110β, 0.25 µM; against p110δ, 0.75 µM. The “Effect on rhGM-CSF-mediated human neutrophil survival” value in the series on Human neutrophils [2] (setting [9]) is “failed to affect GM-CSF-mediated survival”.

On to `CC#C[C@]1(O)CC[C@H]2[C@@H]3CCC4=CC(=O)CCC4=C3[C@@H](c3ccc(N(C)C)cc3)C[C@@]21C` [RU-486], for which, in series [5] (ex vivo, 20 min pre-incubation), the “Effect on reduced spontaneous apoptosis of neutrophils from exacerbating COPD patients” value is “lack of effect”.

`COC[C@H]1OC(=O)c2coc3c2[C@@]1(C)C1=C(C3=O)[C@@H]2CCC(=O)[C@@]2(C)C[C@H]1OC(C)=O` [Wortmannin]: the “Effect on rhGM-CSF-mediated human neutrophil survival” value with Human neutrophils [2] (inhibitor 100 nM, replenished during culture) is “blocked the anti-apoptotic effect of GM-CSF, although less completely than 10 µM LY294002”. Besides, the “Effect on GM-CSF-induced PKB phosphorylation” value in series [6] is on record as “abolished”.

As for “rhGM-CSF: Recombinant human granulocyte-macrophage colony stimulating factor, obtained from R&D Systems”, the “Effect of GM-CSF on human neutrophil apoptosis” value with Human neutrophils [2] (6–24 h) is “delays human neutrophil apopotosis”. Besides, in series [5] (10 ng/ml), the “Effect of rhGM-CSF on survival of neutrophils from exacerbating COPD patients” value is given as “caused a fully PI3K-dependent additional survival effect”.

B1: rmGM-CSF: Recombinant mouse granulocyte-macrophage colony stimulating factor, purchased from Peprotech (protein, UniProt P01587 18-141, looked up)
Granulocyte-macrophage …: APTRSPITVTRPWKHVEAIKEALNLLDDMPVTLNEEVEVVSNEFSFKKLTCVQTRLKIFEQGLRGNFTKLKGALNMTASYYQTYCPPTPETDCETQVTTYADFIDSLKTFLTDIPFECKKPGQK
B1: in series [7] (C57BL/6 peripheral blood neutrophils, 8 hour, AnV/PI flow cytometry), the “EC50 for delay of murine neutrophil apoptosis” value is 0.0075 ng/mL. In addition, in series [7] (concentration-dependent, all time points studied (0–12 h)), the “Effect on murine neutrophil apoptosis” value is recorded as “significantly delayed”.
